Results as given in publication PMC12031237, “Toxicity Assessment of (4Z)-Lachnophyllum and (4Z,8Z)-Matricaria Lactones: Implications for Environmental Safety of Bioherbicides” (Toxins, 2025).
In brackets after ≈: the same amount, converted by molar mass. Several values for one entry are separate records, joined by “and”; a condition that tells them apart may be missing. Equal entries are not always repeated. Entries after “also recorded” stand apart in the source; their conditions may differ. Where two headings read alike, the source gives them in different places.

Assays:
[1] = Stability (photodegradation) in ISO 8692:2012 medium, quantified by HPLC; format: physicochemical; conditions: 20 °C, 254 nm light
Description: For the photodegradation assays, 3 mg of MAT and 3 mg of LAC were separately dissolved in 150 µL of DMSO and added to 3 mL of International Organization for Standardization (ISO) 8692:2012 medium. The solutions were exposed to 254 nm of light for up to 16 days. At specific time intervals (1, 2, 3, 6, and 16 days), 400 µL of the solutions were collected and analyzed by TLC using n-hexane/EtOAc (75:25, v/v) as the eluent, with MAT and LAC standard samples serving as references.
HPLC analysis was performed in isocratic mode and with the same ISO medium solutions, using MeCN–H2O (0.1% v/v formic acid) at a 60:40 (v/v) ratio as the mobile phase, with a flow rate of 0.5 mL/min. Detection was carried out at 220 nm with a 20 μL injection loop, monitoring the chromatogram for over 50 min to identify potential degradation products. Each sample was analyzed in triplicate. Control solutions containing only the culture medium and DMSO (without MAT or LAC) were also analyzed under identical conditions to ensure specificity.
Calibration curves for MAT and LAC were prepared by injecting standard samples at concentrations ranging from 0.022 to 2.2 mg for MAT and 0.004 to 2.2 mg for LAC. These standards were used to optimize the method and quantify the degradation products.

A. fischeri = assay: Bioluminescence (light) inhibition test, ISO 11348-3; conditions: for EC50 / inhibition at 3.125 µg/mL: Aliivibrio fischeri, 0.5 h; for EC50: read-out: EC50 (light inhibition), 30 min exposure; for inhibition at 3.125 µg/mL: read-out: light inhibition
Description: The bioluminescence inhibition test (30 min) was detected with the A. fischeri (NRRLB-11177) supplied by MicroBioTest, Gent, Belgium, and according to ISO 11348-3 [59]. The bioluminescence was determined by the luminometer Microtox (Model 500 analyzer, New Castle, DE, USA) at 490 nm. To provide the required osmotic pressure for the bacterium, the stock solution was diluted to perform the test in saline water solution (2% sodium chloride, NaCl). The concentrations tested correspond to 0.19, 0.39, 0.78, 1.56, and 3.12 mg L^−^1 and a negative control of 0 mg L^−^1. Toxicity tests were performed in triplicate with a control, and the percentage luminescence inhibition was expressed as the ratio of the decrease in bacterial light production to the remaining light.
(§1) Data analysis was conducted using RStudio for Windows (Version 2024.09.1). Dose–response models were applied to estimate the effective concentrations (EC10 and EC50) for the tested endpoints using the “drc” package. For D. magna, the data were modeled with a binomial log-logistic approach, whereas data for R. subcapitata, A. fischeri and L. sativum were fitted to log-logistic models with the upper limit constrained to 100. Furthermore, to ensure assay sensitivity and validity, a positive control exposed to potassium dichromate for the aquatic species and copper chloride for C. elegans was tested under the same experimental conditions.

R. subcapitata = assay: Algal growth inhibition test, ISO 8692; conditions: for Test Score / EC10 (growth inhibition): 72 h exposure; for EC50 / inhibition at 3.125 µg/mL: Raphidocelis subcapitata; for EC50: read-out: EC50 (growth inhibition); for inhibition at 3.125 µg/mL: read-out: growth inhibition
Description: The algal growth inhibition test (72 h) with R. subcapitata was carried out according to ISO 8692 [58]. The algal density was determined by spectrophotometric analysis (DR5000, Hach Lange GbH, Weinheim, Germany) at 670 nm. The concentrations tested correspond to 0.19, 0.39, 0.78, 1.56, and 3.12 mg L^−^1 and a negative control of 0 mg L^−^1. The growth inhibition was calculated as the difference in growth at the end of the test of the sample and the control group. Toxicity tests were carried out in triplicate.
as §1

D. magna = assay: Crustacean immobility acute test, ISO 6341; format: in vivo, Daphnia magna; conditions: for immobilization: 6.91 mg L^−1, 24 h exposure; for EC50: Daphnia magna, read-out: EC50 (immobilization); for Hazard Ranking: GHS ranking of 48 h EC50, this study
Description: The immobility acute test (48 h) with D. magna was conducted according to ISO 6341 [60]. D. magna was selected from laboratory stock cultures at the Hygiene Laboratory of the Department of Biology of the University of Naples Federico II, placed in ISO medium, and fed daily with the microalgae R. subcapitata. For the test, five neonates (third brood, <24 h old) were exposed in 10 mL of ISO medium to the following corresponding concentrations: 0.22, 0.43, 0.86, 1.73, 3.46, 6.91, 13.83, 27.65, and 55.30 mg L^−^1 and a negative control of 0 mg L^−^1. Each concentration had 4 replicates, and immobility was assessed after 24 and 48 h of exposure.
as §1

C. elegans = assay: Nematode survival bioassay in soil, ASTM E2172-01; format: in vivo; conditions: for mortality: 24 h exposure, across tested concentrations (1.73 to 94 mg L^−1); for Test Score: N2, Bristol variant (wild type), Caenorhabditis elegans, in vivo, 24 h
Description: The nematode bioassay was carried out using the Caenorhabditis elegans wild-type strain N2, Bristol variant, according to the ASTM E2172—01 Standard Method (2014). Culture was maintained on NGM (nematode growth media) plates seeded with Escherichia coli (uracil-deficient OP50 strain) and stored at 20 °C. The tests were conducted using age-synchronized adult nematodes, obtained by lysing gravid nematodes with a bleaching solution (10 g/L NaOH, 10.5 g/L NaOCl), followed by centrifugation and washing with an M9 mineral medium (2.2 mM KH2PO4, 4.2 mM Na2HPO4, 85.6 mM NaCl, and 1 mM MgSO4). The synchronized nematodes were then transferred to NGM agar plates and left to recover overnight.
Soil samples (2.33 g) were hydrated to 35–45% of their dry weight using K-medium in centrifuge tubes. Ten worms were transferred to each tube and exposed to the soil samples for 24 h at 20 °C. […] Treatments were performed in triplicate, with worms kept unfed during the exposure period. Nematodes were extracted by centrifugation (2000 rpm, 2 min) using silica gel (Ludox TM 50, Sigma-Aldrich, St. Louis, MO, USA) with a specific density of 1.13 g/mL. The supernatant was then transferred to 100 mm glass Petri dishes and washed with Keller (K) medium. Extracted individuals were counted under a microscope (40× magnification), with mortality as the measured endpoint. Test validity required a minimum of 80% nematode recovery and 90% survival in the control group.

L. sativum = assay: Plant germination and growth phytotoxicity test; format: in vivo, Lepidum sativum; conditions: 72 h exposure; for germination: tested concentrations up to 94 mg L^−1; for EC50: Lepidium sativum, read-out: EC50 (shoot length)
Description: Lepidum sativum seeds were purchased from Microbiotests (Gent, Belgium) and were used for the phytotoxicity test. Tests were conducted following the standard method. Seeds (n = 10) were placed in 10 g of soil medium and exposure was carried out in triplicates. […] Germination (%) and root elongation inhibition were combined to calculate the germination index (GI, %).

[2] = Hazard classification and weight score over the test battery; conditions: for hazard classification: classes I (no acute hazard) to V (very high acute hazard); for Weight Score [%]: overall, all tests performed
Description: When possible, the EC50 values derived from the tests were used for toxicity classification following the methodology in [65]. Compounds were categorized into five hazard classes, ranging from Class I (no acute hazard) to Class V (very high acute hazard). Additionally, weight scores for each test were calculated to quantify the relative level of toxicity, with scores assigned as follows: 0 (no significant toxic effect), 1 (significant toxic effect), 2 (toxic effect), and 3 (100% toxic effect). The weight score for each compound, based on the tests performed, was expressed as a percentage.

[3] = 30 min exposure, standard error in brackets, n = 3
[4] = estimated from the model, outside of the tested concentrations
[5] = standard error in brackets, n = 3

SMILES	Degraded Compound (%) ([1]; exposition time 1 day)	Degraded Compound (%) ([1]; exposition time 2 days)	Degraded Compound (%) ([1]; exposition time 3 days)	Degraded Compound (%) ([1]; exposition time 6 days)	Test Score (A. fischeri; 30 min exposure)	EC10 (light inhibition) (A. fischeri; [3])	inhibition at 3.125 µg/mL (A. fischeri)	Test Score (R. subcapitata)	EC50 (R. subcapitata; 72 h)	inhibition at 3.125 µg/mL (R. subcapitata; 72 h)	immobilization (D. magna)	EC10 (immobilization) (D. magna; 24 h exposure)	EC10 (immobilization) (D. magna; 48 h exposure)	EC50 (immobilization) (D. magna; 48 h exposure)	Test Score (D. magna; 48 h exposure)	EC50 (D. magna; 24 h, 24 h exposure)	EC50 (D. magna; 48 h, 48 h exposure)	Hazard Ranking (D. magna)	mortality (C. elegans)	Test Score (C. elegans)	also measured
CCCC#C/C=C1/C=CC(=O)O1 [LAC, (4Z)-lachnophyllum lactone]	8.5%	19.23%	26.58%	28.24%	1	0.524 mg L^−1 and 0.524 (0.212) mg L^−1	< 40%	1	9.88 µg/mL (≈ 60.9 µM)	36%	100%	1.67 (0.313) mg L^−1	1.499 mg L^−1 and 1.49 (1.063) mg L^−1	1.728 µg/mL (≈ 10.7 µM)	3	2.44 µg/mL (≈ 15 µM)	1.72 µg/mL (≈ 10.6 µM)	*** (toxic (<1 mg L^−1 ≤ 10 mg L^−1))	no mortality	0	EC50 (light inhibition) (A. fischeri; 30 min exposure, estimated from the model, outside of the tested concentrations): 8.078 µg/mL (≈ 49.8 µM); EC50 (A. fischeri; [4]): 8.07 µg/mL (≈ 49.8 µM); EC10 (growth inhibition) (R. subcapitata; [5]): 0.304 mg L^−1 and 0.304 (0.125) mg L^−1; EC10 (shoot length) (L. sativum): 70.87 mg L^−1 and 70.87 (195.32) mg L^−1; Test Score (L. sativum): 3; germination (L. sativum): no effects; also recorded: unaffected; EC50 (L. sativum): 85.9 µg/mL (≈ 530 µM); hazard classification [2]: Class II; Weight Score [%] [2]: 53.33%
C/C=C\C#C/C=C1/C=CC(=O)O1 [MAT, (4Z,8Z)-matricaria lactone]	90% and 89.74%	90.06%	90.38%	94.55%	2	0.063 mg L^−1 and 0.063 (0.013) mg L^−1	~80%	0	4.52 µg/mL (≈ 28.2 µM)	-2.4%	100%	3.11 (1.894) mg L^−1	1.215 mg L^−1 and 1.21 (0.294) mg L^−1	2.239 µg/mL (≈ 14 µM)	3	3.56 µg/mL (≈ 22.2 µM)	2.23 µg/mL (≈ 13.9 µM)	*** (toxic (<1 mg L^−1 ≤ 10 mg L^−1))	no mortality	0	EC50 (A. fischeri; [5]): 0.642 µg/mL (≈ 4.01 µM); growth inhibition (average) (R. subcapitata; 72 h, concentrations 0.19 to 1.56 mg L^−1, negative = stimulation): approximately −10%; EC10 (growth inhibition) (R. subcapitata; [4]): 3.417 mg L^−1 and 3.417 (0.620) * mg L^−1; EC10 (shoot length) (L. sativum): 38.48 mg L^−1 and 38.48 (23.979) mg L^−1; Test Score (L. sativum): 2; germination (L. sativum): no effects; also recorded: unaffected; EC50 (L. sativum): 82.3 µg/mL (≈ 514 µM); hazard classification [2]: Class II; Weight Score [%] [2]: 46.66%
